Experimental data from patent US20090263410A1, “USE OF TGF-B1 INHIBITOR PEPTIDES IN THE PREPARATION OF AN IMMUNE RESPONSE MODULATING AGENT” (Proyecto De Biomedicina Cima, S.L., priority 2005, published 2009).

Columns and labels:
TGF-β1 = biological target: T1, TGF-β1 (Mus musculus, UniProt P04202); assay: In vivo activity of recombinant adenovirus for mouse IL-12: IFN-γ and NO levels in serum; design: species or system BALB/c mice
T1 construct: an in vivo system wherein TGF-β1 acts as supposed antagonist of the cytokines induced in this model; from tissue; host or cells: living BALB/c mice (Harlan), endogenous TGF-β1; read-out in serum
Description: This example studies the effect of peptide p144 in an in vivo system wherein TGF-β1 acts as supposed antagonist of the cytokines induced in this model. The production of mouse IL-12 by the expression of a transgen included in the recombinant adenovirus, induces an inflammatory state through the induction of a cascade of factors, including IFN-γ and nitric oxide. TGF-β1 has been described as an inhibitor of the production and biological action of IL-12, IFN-γ and NO (Pardoux C. et al., 1999; Schini V. B. et al., 1992). […]
Blood samples were extracted from both groups on days 6 and 9 after immunization for the subsequent quantification of IFN-γ and NO levels in serum.
The quantity of IFN-γ was measured by a commercial ELISA (Mouse IFN-γ Duoset ELISA Development System, Genzyme, Cambridge and OPTEIA Mouse IFN-γ Ser, Pharmingen, San Diego, USA) in accordance with the manufacturer's instructions. The results were expressed as pg/ml of IFN-γ and using a standard curve of known quantities of IFN-γ. […]
NO2* emission is in the red and infrared region of the light spectrum and is detected by a red-sensitive photomultiplier tube. This signal is quantified and the data obtained are collected and processed by a computer.

RAd-LacZ = assay: Induction of anti-RAd LacZ antibodies (ELISA) after immunization with heat-inactivated adenovirus; assay type: in vivo, BALB/c mice
Procedure: To analyse the immunomodulating effect of peptide p144 on the humoral response, female BALB/c mice (Harlan, Barcelona) were used, of between 6 and 8 weeks old. For the induction of specific antibodies, recombinant adenovirus (RAd-LacZ) inactivated by heat in a bath at 100° C. for 10 minutes was inoculated.
Three mice were immunized per group, by the intraperitoneal of a mixture of 200 μl which contained 1×10^8 pfu of the inactivated RAd-LacZ adenovirus, physiological serum (PS) or with […] of peptide p144, all emulsified in Freund's complete adjuvant (FCA) in a 1:1 volumetric ratio as indicated in table M4. Thirty days after the first immunization, the animals were reimmunized with the same mixture, but emulsified in Freund's incomplete adjuvant (FIA). Blood samples were taken from the retroorbital plexus on days 15 and 45 to quantify the anti-adenovirus antibodies generated in each animal.
In order to study the possible induction of antigen intolerance in the mice treated with p144, on day 50 after the I^st injection, the mice were inoculated intravenously with 4×10^8 pfu of active RAd-LacZ in 100 μl of RPMI-1640, including a new group of mice (cont iv), which had only received the intravenous dose of active LacZ adenovirus. Blood samples were taken after 7 days in all groups. Next, the animals were sacrificed to include liver samples in OCT® (Tissue-Tek®, SAKURA, the Netherlands) to the subsequent evaluation of LacZ expression in the liver.
The detection of antibodies in serum against RAd-LacZ was performed by ELISA assays using Maxisorp® flat-bottomed 96-well plates (Nunc, Roskilde, Denmark), based on the streptavidin-biotin system using 2,2′-azino-bis-3-ethylbenzthiazoline-6-sulphonic acid (ABTS) as developer. The plates were incubated throughout the night at 4° C. with 50 μl per well of a solution of 75 μl of RAd-LacZ 10^10 pfu/ml in 10 ml 0.1 M Na2CO3 (pH=10.5). […] 100 μl per well were added and after one hour the plate was read at 405 nm in a Multiskan Plus MKII reader (Labsystem, Helsinki, Finland).

T1 sequence (P04202 279-390 limits assumed): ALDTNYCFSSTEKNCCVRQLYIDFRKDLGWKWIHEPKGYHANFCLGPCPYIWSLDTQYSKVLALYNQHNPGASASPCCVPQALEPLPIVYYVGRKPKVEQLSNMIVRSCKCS

p144: peptide inhibiting TGF-β1 whose amino acid sequence corresponds to SEQ ID NO: 1 (TSLDASIIWAMMQN; Synthetic Construct from human TGB-Beta1 type III receptor.Domain730-743)
serum levels of IFN-γ (TGF-β1; RAd IL-12 1×10^8 pfu i.p. plus p144 daily 100 μg for 5 days, versus RAd IL-12 alone): increases | NO serum levels (TGF-β1; day 6, RAd IL-12 1×10^8 pfu i.p. plus p144, versus RAd IL-12 alone): greater level | antibody titer after intravenous infection with active RAd LacZ (RAd-LacZ; 7 days after 4×10^8 pfu RAd LacZact i.v., no p144 at challenge, versus group immunized without p144): approximately equalled | anti-RAd LacZ antibody production after first immunization (RAd-LacZ; day 15, RAd LacZinact in presence or absence of p144, ELISA): no quantifiable effect | antibody titer against RAd LacZ after second immunization (RAd-LacZ; p144 50 μg in immunization mixture, versus inactivated RAd LacZ only): clearly lower
